Here are results for one substance from US10080779B2, “Method for increasing the expression of anti-microbial peptides by keratinocytes comprising administering a composition comprising IL-17, TNF-alpha and OSM” (Universite D'Angers, priority 2004, dated 2018).

In experiment [1] the test system is normal human keratinocytes (NHEK). Briefly: Cytokine cocktails on S100A7, hBD2/4, KRT10 mRNA in NHEK (RT-Q-PCR). The experiment is classed as cell-based. The settings on record: NHEK 24 hrs, 1 ng/ml each.
In experiment [2] the test system is NHEK. Briefly: cDNA macroarrays analysis of 36 cytokines on 154 genes in NHEK. The experiment is classed as cell-based, human. The settings on record: 10 ng/ml, 24 h.
Experiment [3] deals with NHEK. Description: RT-QPCR of antimicrobial peptide and chemokine genes in NHEK. The experiment is classed as cell-based, human. The conditions noted are these: 10 ng/ml, 24 h. The procedure:
NHEK were obtained as previously described, from surgical samples of healthy breast skin (Boniface et al, 2005). NHEK were cultured to 80% of confluence and then starved for 24 h in Keratinocyte SFM without addition of growth factors before stimulation. Cells were stimulated with or without 10 ng/ml of recombinant IL-17A, OSM, TNFα, IL-22 and IL-1α alone or in combination (R&D systems Europe, Lille, France) during 24 h for mRNA quantification or 48 h to 96 h for protein quantification.
NHEK and skin total RNA were isolated and reverse-transcribed as previously described (Boniface et al, 2005). Quantitative real time PCR was carried using the LightCycler-FastStart DNA Master SYBR® Green I kit on LightCycler 480 (Roche Diagnostics, Meylan, France). The reaction components were 1×DNA Master Mix, and 0.5 μM of HPLC purified sense and anti-sense oligonucleotides purchased from Eurogentec (Eurogentec France, Angers, France), designed using Primer3 software. Samples were normalized to three independent control housekeeping genes (G3PDH, RPL13A or ACTB for human samples and G3PDH, HMBS or B2m for mouse samples) and reported according to the ΔΔCT method as RNA fold increase: 2^ΔΔCT=2^ΔCT sample−ΔCT eference. For comparison of normal skin and psoriatic skin the REST 2008 software was used (Pfaffl et al., 2002).

Experiment [4] concerns reconstituted human epidermis (RHE). Briefly: Reconstituted human epidermis model, histology and immunohistochemistry (OSM). The experiment is classed as cell-based. The method, then: For histological and immunohistochemical studies, RHE, grown for 12 days at the air-medium interface, were purchased from SkinEthic Laboratories (Nice, France). […] As recommended, RHE were grown for 1 day in SkinEthic growth medium prior to stimulation in the absence or presence of OSM for 4 days. They were then fixed in a balanced 10% formalin solution and embedded in paraffin. Four micron vertical sections were stained with heamatoxylin/eosin or with specific Ab and peroxidase-conjugated Antibodies, and counterstained with haematoxylin according to standard protocols (Rosdy, Bertino et al. 1997). Anti-K10 keratin and anti-filaggrin monoclonal Antibodies were from Lab Vision Corporation (Fremont, Calif., USA).

Experiment [5] has as its system NHEK. Description: Gene expression profiling of NHEK using cDNA macroarrays. Format: cell-based, human. The settings on record: 10 ng/ml OSM 24 h. The method, then: Total RNA was isolated as described for PCR studies. DNase treatment, polyA^+ RNA enrichment, ^33P-labelled cDNA probe synthesis, purification and hybridization to custom Atlas array membranes (Bernard, Pedretti et al. 2002) were performed according to Clontech's recommendations (Clontech, Palo Alto, USA). Membranes were exposed for 5 days to a Molecular Dynamics Storm storage screen and scanned using a phosphorimager scanner (Molecular Dynamics Storm analyser, Amersham Biosciences, Uppsala, Sweden). After local background substraction, average signal intensity from duplicate spots was normalized for differences in probe labelling using the values obtained for housekeeping genes (Bernard et al., 2002). For each gene, the OSM-induced modulation was expressed as the relative expression value for stimulated versus control sample. Arbitrarily, only modulation above 2 was considered significant for confirmation using RT-real time PCR assay.

As to “OSM: human recombinant oncostatin M, cytokine of the IL-6 family”, in experiment [1], the “Decrease of the activity of the 5 cytokines reference mix on omission of the cytokine, S100A7” value stood at 3 fold and the “Decrease of the activity of the 5 cytokines reference mix on omission of the cytokine, hBD2/4” value is reported as 2.5 fold. In addition, the “Number of genes (of 154) whose expression is modified with at least a three fold increase or decrease” value in experiment [2] is reported as “at least five genes”. For the same substance, the “Number of the 21 chemokine and antimicrobial peptide genes upregulated” value in experiment [3] was 13. Further, the “Hyperplasia / overall thickness of RHE” value in experiment [4] (10 ng/ml OSM, 4 days) is on record as “triggered the hyperplasia of the keratinocytes layers”. Moreover, the Ki67 expression entry in experiment [4] (RHE treated with OSM) was “not induced”. In experiment [4] (RHE, 10 ng/ml OSM, 4 days), the “Filaggrin and keratin 10 expression (immunohistochemistry)” value was “decrease of filaggrin and keratin 10 expression”; the “S100A7 protein (immunohistochemistry)” value is on record as “S100A7 protein up-regulation”. Also, in experiment [5], the “Expression of CXCL1, CXCL5, CXCL8 and PDGF-A genes” value was “increased the expression”; the “Expression of calcium binding proteins S100A7, S100A8, S100A9, S100 neutrophil protein” value is “marked increase”; the “Expression of genes associated with keratinocyte differentiation (CK1, CK10, fillagrin, loricrin)” value is reported as “down regulates”. Further, in experiment [5] (array of 586 cDNAs), the “Number of genes with decreased expression” value came to 38 genes and the “Number of genes with increased expression” value was determined as 36 genes.
